# Assay results: article PMC4489612, “Unravelling the Evolution of the Allatostatin-Type A, KISS and Galanin Peptide-Receptor Gene Families in Bilaterians: Insights from Anopheles Mosquitoes” (PLoS ONE, 2015)
# Ends that are not written are not given here.
# What was measured:
# [1] = test system: GPRALS1; test: iCa^2+ release (Fluo-4 NW) in stable CHO cells expressing GPRALS1; type: cell-based, Anopheles coluzzii; settings: 1 nM to 1 μM (BLAST-2 0.5 μM to 0.005 μM)
# Protocol: (§1) The amplified insect receptors included the initiation and termination codons but were not cloned in frame with vector tag proteins. The recombinant constructs were used to transfect mammalian CHO cells that had been maintained in complete Dulbecco’s modified Eagle’s medium (DMEM, Sigma, Spain) containing 4.5 g/L glucose, 110 mg/L sodium pyruvate and L-glutamine and supplemented with 10% sterile foetal bovine serum and 0.1% penicillin: streptomycin antibiotic mix (10.000 U: 10 mg/ml, Sigma) and 250μg/ml sterile filtered amphotericin B solution (1:100 dilution, Sigma, Spain). One day prior to transfection, 2–3 x10^5 cells were seeded into 6 well plates (Sarstedt, Portugal) and transfected using Fugene 6 reagent (1: 6 DNA: Fugene, Roche, Germany) according to the manufacturer’s protocol. The efficiency and success of cell transfection was estimated by performing a simultaneous transfection with a plasmid encoding a fluorescent protein. 72 h after incubation, transformed cells were selected by supplementing medium with 800μg/ml of the antibiotic Geneticin (G418 sulphate, GibcoBRL, USA) and cell recovery was monitored daily and the medium changed until no cell death was observed. Establishment of AST-AR CHO stable cell lines were confirmed by PCR using receptor specific primers.
# (§2) GPRALS1 and GPRALS2 stable CHO cell lines were stimulated with Ano_AST-A1 and Ano_AST-A2 peptides, the B. germanica BLAST-2 peptide and rat GAL and sea bass KISS peptides and iCa^2+ release and cAMP production were measured.
# (§3) For iCa^2+ release (Relative Fluorescent Units, RFU) a Ca^2+ sensitive fluorescent dye Fluo-4 NW (Molecular Probes, Invitrogen) was used. Approximately 50,000 cells were assayed per well and the variation in fluorescence after addition of increasing peptide concentrations (1 nM to 1 μM, diluted in the assay buffer) was measured every 5s over a total of 2 min and fluorescence was excited using a 485/20 nm filter and captured with a 528/20 nm filter in a Biotek Synergy 4 plate reader (Biotek, USA). Background RFU of transfected cells was measured prior to peptide stimulation. The controls consisted of transfected cells exposed to carbachol (100 nM; Sigma, Spain) and non-transfected CHO cells stimulated with 1 μM of each peptide (negative control).
# (§4) Quantitative expression data is presented as mean ± SEM of cDNA from 3 independent experiments analysed in duplicate. Significant changes in transcript expression were assessed using a nonparametric Mann-Whitney two-tailed test. Receptor activation is presented as the mean ± SEM of three independent experiments carried out in triplicate and statistical significance was assessed using a Kruskal-Wallis test with Dunn’s Multiple Comparison Test. […]
# [2] = test system: GPRALS2; test: iCa^2+ release (Fluo-4 NW) in stable CHO cells expressing GPRALS2; type: cell-based, Anopheles coluzzii; settings: 1 nM to 1 μM (BLAST-2 0.5 μM to 0.005 μM)
# Protocol: as §1, §2, §3, §4
# [3] = test system: GPRALS1; test: cAMP production (competitive immunoassay) in stable CHO cells expressing GPRALS1; type: cell-based, Anopheles coluzzii; settings: 1 x PBS/1 mM IBMX, 30 min at 37°C, cryptate labelled anti-cAMP antibody, triplicate on three occasions
# Protocol: (§5) The amplified insect receptors included the initiation and termination codons but were not cloned in frame with vector tag proteins. The recombinant constructs were used to transfect mammalian CHO cells that had been maintained in complete Dulbecco’s modified Eagle’s medium (DMEM, Sigma, Spain) containing 4.5 g/L glucose, 110 mg/L sodium pyruvate and L-glutamine and supplemented with 10% sterile foetal bovine serum and 0.1% penicillin: streptomycin antibiotic mix (10.000 U: 10 mg/ml, Sigma) and 250μg/ml sterile filtered amphotericin B solution (1:100 dilution, Sigma, Spain). […] 72 h after incubation, transformed cells were selected by supplementing medium with 800μg/ml of the antibiotic Geneticin (G418 sulphate, GibcoBRL, USA) and cell recovery was monitored daily and the medium changed until no cell death was observed. […]
# as §2
# (§6) The amount of cAMP produced was determined using a competitive immunoassay with a cryptate labelled anti-cAMP antibody (Cisbio, France) and following the manufactures protocol. […]
# (§7) Quantitative expression data is presented as mean ± SEM of cDNA from 3 independent experiments analysed in duplicate. […]
# [4] = test system: GPRALS2; test: cAMP production (competitive immunoassay) in stable CHO cells expressing GPRALS2; type: cell-based, Anopheles coluzzii; settings: 1 x PBS/1 mM IBMX, 30 min at 37°C, cryptate labelled anti-cAMP antibody, triplicate on three occasions
# Protocol: as §5, §2, §6, §7
# [5] = test system: DAR-1; settings: D. melanogaster DAR-1; cited from earlier work
# [6] = test system: DAR-2; settings: D. melanogaster DAR-2; cited from earlier work
# [7] = test system: galanin receptors (GALR); settings: vertebrates; cited from earlier work
# Source text: AST-A peptides activate specific G-protein coupled receptors (GPCRs), the insect allatostatin-A receptors (AST-ARs) that are considered orthologues of galanin receptors (GALR) in vertebrates. In vertebrates, GALRs have a close evolutionary relationship with kisspeptin receptors (KISSR) and are activated by galanin (GAL) and spexin (SPX), peptides that are unrelated to insect AST-As. AST-A peptide function is relatively well studied but the receptors have only been isolated in a few insect species and their evolution and function is unresolved. In t ...
Substance,"receptor activation, iCa^2+ signalling [1]","receptor activation, iCa^2+ signalling [2]",GALR activation [7],further results
"DRLYSFGL-NH2 [BLAST-2, German cockroach Blattella germanica BLAST-2 peptide (DRLYSFGL-NH2)]",activated,activated,–,intracellular cAMP [3]: None of the insect peptides induced increased intracellular cAMP; intracellular cAMP [4]: None of the insect peptides induced increased intracellular cAMP; iCa^2+ mobilization [5]: stimulates iCa^2+ mobilization; iCa^2+ mobilization [6]: stimulates iCa^2+ mobilization
"FNFNPFGLRF-NH2 [KISS 2–10, vertebrate KISS peptide, sea bass KISS 2–10 ([…]-NH2)]",failed to activate,failed to activate,–,–
"YNLNSFGLRY-NH2 [KISS 1–10, vertebrate KISS peptide, sea bass KISS 1–10 ([…]-NH2)]",failed to activate,failed to activate,–,–
"galanin (GAL): galanin (GAL), peptide activating vertebrate galanin receptors",–,–,activated,–
"rat 1–29 GAL: 1–29 rat galanin (Sigma-Aldrich, Spain) (GWTLNSAGYLLGPHAIDNHRSFSDKHGLT; ends and bridges not checked; UniProt P10683 33-61, looked up)",failed to activate,failed to activate,–,–
"spexin (SPX): spexin (SPX), peptide activating vertebrate galanin receptors",–,–,activated,–
